Structures can show the parent of a compound that is named as a salt.
These compounds were tested against IRAK4 (Homo sapiens (Human), UniProt Q9NWZ3) (assay: IRAK4 Kinase Assay). Details: IMAP fluorescence polarization, 0.5 nM GST tagged IRAK4, 100 μM ATP, 30 minutes at 25° C.; read-out: IRAK4 IC50.
Type: biochemical

IRAK4, sequence (Q9NWZ3 whole entry): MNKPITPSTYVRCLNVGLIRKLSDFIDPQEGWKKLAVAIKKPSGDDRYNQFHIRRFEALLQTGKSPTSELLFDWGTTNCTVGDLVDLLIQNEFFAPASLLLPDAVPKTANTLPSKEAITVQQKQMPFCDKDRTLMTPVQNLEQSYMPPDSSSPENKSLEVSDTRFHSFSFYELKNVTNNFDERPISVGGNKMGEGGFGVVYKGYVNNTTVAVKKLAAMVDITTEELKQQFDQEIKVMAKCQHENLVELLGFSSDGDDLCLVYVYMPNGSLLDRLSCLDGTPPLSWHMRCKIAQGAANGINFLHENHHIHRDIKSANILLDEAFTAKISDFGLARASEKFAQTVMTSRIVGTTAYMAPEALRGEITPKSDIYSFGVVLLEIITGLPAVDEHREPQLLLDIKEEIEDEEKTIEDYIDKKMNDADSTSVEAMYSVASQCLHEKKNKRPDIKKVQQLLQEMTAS

SMILES	IC50
O=C(Nc1cn(C(F)F)nc1C(F)(F)F)c1cnn2ccc(N3CCNCC4(CC4)C3)nc12 [Example 68, 5-(5,8-diazaspiro[2.6]non-5-yl)-N-[1-(difluoromethyl)-3-(trifluoromethyl)-1H-pyrazol-4-yl]pyrazolo[1,5-a]pyrimidine-3-carboxamide trifluoroacetate]	0.032 µM
Cn1cc(NC(=O)c2cnn3ccc(N4CC5CNC(COC5)C4)nc23)c(C(F)(F)F)n1 (stereo not shown) [Example 80, N-[1-methyl-3-(trifluoromethyl)-1H-pyrazol-4-yl]-5-(3-oxa-7,9-diazabicyclo[3.3.2]dec-7-yl)pyrazolo[1,5-a]pyrimidine-3-carboxamide trifluoroacetate]	0.029 µM
Cn1cc(NC(=O)c2cnn3ccc(N4CC5CCC(C4)N5)nc23)c(C(F)(F)F)n1 [Example 81, 5-(3,8-diazabicyclo[3.2.1]oct-3-yl)-N-[1-methyl-3-(trifluoromethyl)-1H-pyrazol-4-yl]pyrazolo[1,5-a]pyrimidine-3-carboxamide trifluoroacetate]	0.009 µM
Cn1cc(NC(=O)c2cnn3ccc(N4CC5CNCC4C5)nc23)c(C(F)(F)F)n1 (stereo not shown) [Example 82, 5-(3,6-diazabicyclo[3.2.1]oct-6-yl)-N-[1-methyl-3-(trifluoromethyl)-1H-pyrazol-4-yl]pyrazolo[1,5-a]pyrimidine-3-carboxamide trifluoroacetate]	0.114 µM
Cn1cc(NC(=O)c2cnn3ccc(N4CCC[C@@H](N)C4)nc23)c(C(F)F)n1 [Example 90, 5-[(3R)-3-aminopiperidin-1-yl]-N-[3-(difluoromethyl)-1-methyl-1H-pyrazol-4-yl]pyrazolo[1,5-a]pyrimidine-3-carboxamide trifluoroacetate]	0.0005 µM
Cn1cc(NC(=O)c2cnn3ccc(N4[C@@H]5CC[C@H]4[C@@H]4CC[C@H]5N4)nc23)c(C(F)(F)F)n1 [Example 92, 5-[9,10-diazatricyclo[4.2.1.1~2,5~]dec-9-yl]-N-]1-methyl-3-(trifluoromethyl)-1H-pyrazol-4-yl]pyrazolo[1,5-a]pyrimidine-3-carboxamide trifluoroacetate]	0.115 µM
Cn1cc(NC(=O)c2cnn3ccc(N4CCNCCC45CC5)nc23)c(C(F)(F)F)n1 [Example 95, 5-(4,7-diazaspiro[2.6]non-4-yl)-N-[1-methyl-3-(trifluoromethyl)-1H-pyrazol-4-yl]pyrazolo[1,5-a]pyrimidine-3-carboxamide trifluoroacetate]	0.789 µM
Cn1cc(NC(=O)c2cnn3ccc(NC4CCCCNC4)nc23)c(C(F)F)n1 (stereo not shown) [Example 99, 5-(azepan-3-ylamino)-N-[3-(difluoromethyl)-1-methyl-1H-pyrazol-4-yl]pyrazolo[1,5-a]pyrimidine-3-carboxamide]	0.003 µM
O=C(Nc1ccccc1I)c1cnn2ccc(N3CCNCC4(CC4)C3)nc12 [Example 100, 5-(5,8-diazaspiro[2.6]non-5-yl)-N-(2-iodophenyl)pyrazolo[1,5-a]pyrimidine-3-carboxamide trifluoroacetate]	8.08 µM
O=C(Nc1ccccc1I)c1cnn2ccc(N[C@@H]3CCCC[C@@H]3O)nc12 [Example 101, 5-{[(1R,2S)-2-hydroxycyclohexyl]amino}-N-(2-iodophenyl)pyrazolo[1,5-a]pyrimidine-3-carboxamide]	7.65 µM
Cn1cc(NC(=O)c2cnn3ccc(N4C5CCC6NC5CCC64)nc23)c(C(F)(F)F)n1 [Example 102, 5-(2,7-diazatricyclo[4.4.0.0~3,8~]dec-2-yl)-N-[1-methyl-3-(trifluoromethyl)-1H-pyrazol-4-yl]pyrazolo[1,5-a]pyrimidine-3-carboxamide trifluoroacetate]	0.163 µM
O=C(Nc1ccccc1Cl)c1cnn2ccc(N3CC4CCC3CN4)nc12 (stereo not shown) [Example 107, N-(2-chlorophenyl)-5-(2,5-diazabicyclo[2.2.2]oct-2-yl)pyrazolo[1,5-a]pyrimidine-3-carboxamide trifluoroacetate]	0.521 µM
O=C(Nc1ccccc1Br)c1cnn2ccc(N3CCCNCC3)nc12 [Example 109, N-(2-bromophenyl)-5-(1,4-diazepan-1-yl)pyrazolo[1,5-a]pyrimidine-3-carboxamide trifluoroacetate]	3.36 µM

Continued by falling IC50, values first:

IC50	SMILES
6.06 µM	O=C(Nc1ccccc1I)c1cnn2ccc(N3CC4CCC3CN4)nc12 (stereo not shown) [Example 103, 5-(2,5-diazabicyclo[2.2.2]oct-2-yl)-N-(2-iodophenyl)pyrazolo[1,5-a]pyrimidine-3-carboxamide trifluoroacetate]
1.89 µM	N[C@@H]1[C@H](Nc2ccn3ncc(C(=O)Nc4ccccc4Br)c3n2)CCCC1(F)F [Example 108, 5-{[(1R,2R)-2-amino-3,3-difluorocyclohexyl]amino}-N-(2-bromophenyl)pyrazolo[1,5-a]pyrimidine-3-carboxamide trifluoroacetate]
1.27 µM	O=C(Nc1ccccc1Cl)c1cnn2ccc(N3CCCNCC3)nc12 [Example 105, N-(2-chlorophenyl)-5-(1,4-diazepan-1-yl)pyrazolo[1,5-a]pyrimidine-3-carboxamide trifluoroacetate]
0.927 µM	N[C@@H]1[C@H](Nc2ccn3ncc(C(=O)Nc4cn(CC(F)(F)F)nc4C(F)(F)F)c3n2)CCCC1(F)F [Example 69, 5-{[(1R,2R)-2-amino-3,3-difluorocyclohexyl]amino}-N-[1-(2,2,2-trifluoroethyl)-3-(trifluoromethyl)-1H-pyrazol-4-yl]pyrazolo[1,5-a]pyrimidine-3-carboxamide trifluoroacetate]
0.788 µM	N[C@@H]1[C@H](Nc2ccn3ncc(C(=O)Nc4ccccc4Cl)c3n2)CCCC1(F)F [Example 106, 5-{[(1R,2R)-2-amino-3,3-difluorocyclohexyl]amino}-N-(2-chlorophenyl)pyrazolo[1,5-a]pyrimidine-3-carboxamide trifluoroacetate]
0.328 µM	N[C@@H]1[C@H](Nc2ccn3ncc(C(=O)Nc4cn(C(F)F)nc4C(F)(F)F)c3n2)CCCC1(F)F [Example 71, 5-{[(1R,2R)-2-amino-3,3-difluorocyclohexyl]amino}-N-[1-(difluoromethyl)-3-(trifluoromethyl)-1H-pyrazol-4-yl]pyrazolo[1,5-a]pyrimidine-3-carboxamide trifluoroacetate]
0.144 µM	Cn1cc(NC(=O)c2cnn3ccc(N4CC5CCC4CCN5)nc23)c(C(F)(F)F)n1 (stereo not shown) [Example 73, 5-(2,6-diazabicyclo[3.2.2]non-6-yl)-N-[1-methyl-3-(trifluoromethyl)-1H-pyrazol-4-yl]pyrazolo[1,5-a]pyrimidine-3-carboxamide trifluoroacetate]
0.141 µM	O=C(Nc1cn(C(F)F)nc1C(F)(F)F)c1cnn2ccc(N[C@@H]3CCCC[C@@H]3O)nc12 [Example 72, N-[1-(difluoromethyl)-3-(trifluoromethyl)-1H-pyrazol-4-yl]-5-{[(1R,2S)-2-hydroxycyclohexyl]amino} pyrazolo[1,5-a]pyrimidine-3-carboxamide trifluoroacetate]
0.062 µM	CC1CN(c2ccn3ncc(C(=O)Nc4cn(C)nc4C(F)(F)F)c3n2)C(C)CN1 (stereo not shown) [Example 79, 5-(2,5-dimethylpiperazin-1-yl)-N-[1-methyl-3-(trifluoromethyl)-1H-pyrazol-4-yl]pyrazolo[1,5-a]pyrimidine-3-carboxamide trifluoroacetate]
0.051 µM	O=C(Nc1cn(CC(F)(F)F)nc1C(F)(F)F)c1cnn2ccc(N3CCNCC4(CC4)C3)nc12 [Example 70, 5-(5,8-diazaspiro[2.6]non-5-yl)-N-[1-(2,2,2-trifluoroethyl)-3-(trifluoromethyl)-1H-pyrazol-4-yl]pyrazolo[1,5-a]pyrimidine-3-carboxamide trifluoroacetate]
0.041 µM	Cn1cc(NC(=O)c2cnn3ccc(N4CC5CC4CCN5)nc23)c(C(F)(F)F)n1 (stereo not shown) [Example 74, 5-(2,6-diazabicyclo[3.2.1]oct-6-yl)-N-[1-methyl-3-(trifluoromethyl)-1H-pyrazol-4-yl]pyrazolo[1,5-a]pyrimidine-3-carboxamide trifluoroacetate]
0.033 µM	Cn1cc(NC(=O)c2cnn3ccc(N4CCCNCC45CC5)nc23)c(C(F)(F)F)n1 [Example 98, 5-(4,8-diazaspiro[2.6]non-4-yl)-N-[1-methyl-3-(trifluoromethyl)-1H-pyrazol-4-yl]pyrazolo[1,5-a]pyrimidine-3-carboxamide trifluoroacetate]
0.004 µM	Cn1cc(NC(=O)c2cnn3ccc(N4CCCNCC4)nc23)c(C(F)F)n1 [Example 87, 5-(1,4-diazepan-1-yl)-N-[3-(difluoromethyl)-1-methyl-1H-pyrazol-4-yl]pyrazolo[1,5-a]pyrimidine-3-carboxamide trifluoroacetate]
0.002 µM	Cn1cc(NC(=O)c2cnn3ccc(N4CCNCC5(CC5)C4)nc23)c(C(F)F)n1 [Example 86, 5-(5,8-diazaspiro[2.6]non-5-yl)-N-[3-(difluoromethyl)-1-methyl-1H-pyrazol-4-yl]pyrazolo[1,5-a]pyrimidine-3-carboxamide trifluoroacetate]
0.002 µM	Cn1cc(NC(=O)c2cnn3ccc(N4CC5CCC4CN5)nc23)c(C(F)F)n1 (stereo not shown) [Example 96, 5-(2,5-diazabicyclo[2.2.2]oct-2-yl)-N-[3-(difluoromethyl)-1-methyl-1H-pyrazol-4-yl]pyrazolo[1,5-a]pyrimidine-3-carboxamide trifluoroacetate]
0.001 µM	N[C@H]1CCCC[C@H]1Nc1ccn2ncc(C(=O)Nc3ccccc3Cl)c2n1 [Example 104, 5-{[(1R,2)S-2-aminocyclohexyl]amino}-N-(2-chlorophenyl)pyrazolo[1,5-a]pyrimidine-3-carboxamide trifluoroacetate]
0.0009 µM	N[C@H]1CCCC[C@H]1Nc1ccn2ncc(C(=O)Nc3cscc3Br)c2n1 [Example 76, 5-{[(1R,2S)-2-aminocyclohexyl]amino}-N-(4-bromothiophen-3-yl)pyrazolo[1,5-a]pyrimidine-3-carboxamide trifluoroacetate]
0.0005 µM	Cn1cc(NC(=O)c2cnn3ccc(N[C@@H]4CCCNC4)nc23)c(C(F)F)n1 [Example 91, N-[3-(difluoromethyl)-1-methyl-1H-pyrazol-4-yl]-5-[(3R)-piperidin-3-ylamino]pyrazolo[1,5-a]pyrimidine-3-carboxamide trifluoroacetate]
